According to paper PMC7822874, “Chemoprotective antimalarials identified through quantitative high-throughput screening of Plasmodium blood and liver stage parasites” (Scientific Reports, 2021):
Where “and” joins values, the source holds several entries; their conditions need not be identical. Identical values can stand only once. Like-named read-outs stand apart in the source and are kept apart here.

Key:
in vitro [1] = conditions: human, n = 1
[2] = tested on: Plasmodium falciparum Dd2 asexual blood stage parasites; assay: microbe, parasite or virus in culture; parameters: species or system Plasmodium falciparum Dd2 in human erythrocytes; single determination (one 11-point concentration-response curve); conditions: Plasmodium falciparum, DD2, Erythrocyte, 72 h; read-out: AC50
HepG2-A16-CD81EGFP cells = conditions: average of 2 wells; for HepG2 viability signal, 3 uM, repeat 2: nominal 3 uM (10 mM stock), 4.5 uM for 15 mM, 3.6 uM for 12 mM, 6 uM for 20 mM stock
[3] = tested on: P. berghei-ANKA-GFP-LucCON liver stage parasites in HepG2-A16-CD81EGFP cells; assay: P. berghei liver stage Pb-Luc assay, Method 1 (UCSD, 1536-well); type: cell-based, Plasmodium berghei; conditions: for activity at 1 µM / activity at 3 µM: 48 h; for Max Resp (signal direction of the dose response): Decrease = decreasing P. berghei viability with dose, Increase = increasing signal, Inactive = no dose response
[4] = tested on: luciferase-expressing P. berghei liver stage parasites in HepG2 cells; assay: Inhibition of liver-stage development assay (ILSDA), Method 2 (WRAIR, 96-well); type: cell-based, Plasmodium berghei; conditions: for Max Resp (signal direction of the dose response): Method 2, Decrease = decreasing P. berghei viability with dose, Increase = increasing signal, Inactive = no dose response; for AC50: Plasmodium berghei, HepG2, Method 2
in vitro [5] = conditions: human, HepG2-A16-CD81EGFP cells, uninfected
[6] = tested on: T1, Plasmodium falciparum Dd2-attB (parental line), asexual blood stages; assay: microbe, parasite or virus in culture; parameters: replicate k of 3 (each line is one of three independent assays; the three lines of one compound and parasite line follow each other); conditions: n = 1; for Individual replicates / Log AC50 (M): 72 h; for AC50: Plasmodium falciparum, DD2, 72 h, read-out: Individual replicates / Log AC50 (converted)
T1 construct: Dd2-attB, the isogenic parental line
Procedure, shortened: (§1)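 We compare activity in parasites carrying fumarate-using yeast DHODH with that in the parental line; mETC or parasite DHODH inhibitors are bypassed by this enzyme. Data come from three independent assays, analysed by two-sided Student's t-tests.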

[7] = tested on: T2, Plasmodium falciparum Dd2-attB-ScDHODH (transgenic line expressing yeast DHODH), asexual blood stages; assay: organism not typed; parameters: replicate k of 3 (each line is one of three independent assays; the three lines of one compound and parasite line follow each other); conditions: 72 h, n = 1; for AC50: read-out: Individual replicates / Log AC50 (converted)
T2 construct: Dd2-attB-ScDHODH, the transgenic line that expresses yeast DHODH
Procedure, shortened: as §1

[8] = Hill fit, 50% of maximum activity response, read-out: AC50
[9] = log10 of molar AC50 from Hill fit, read-out: Log AC50 (converted)
[10] = Plasmodium berghei, 1 uM (compounds provided at 10 mM), average of 2 wells on a 1536 well plate, column 11, read-out: Pb-Luc (P. berghei liver stage), % of control, lower concentration, first repeat
[11] = Plasmodium berghei, 1 uM (compounds provided at 10 mM), average of 2 wells on a 1536 well plate, column 12, read-out: Pb-Luc (P. berghei liver stage), % of control, lower concentration, second repeat
[12] = Plasmodium berghei, 3 uM (compounds provided at 10 mM), average of 2 wells on a 1536 well plate, column 8, read-out: Pb-Luc (P. berghei liver stage), % of control, higher concentration, first repeat
[13] = Plasmodium berghei, 3 uM (compounds provided at 10 mM), average of 2 wells on a 1536 well plate, column 9, read-out: Pb-Luc (P. berghei liver stage), % of control, higher concentration, second repeat
[14] = nominal 1 uM (10 mM stock), […] for 15 mM, 1.2 uM for 12 mM, 2 uM for 20 mM stock
[15] = Plasmodium berghei, nominal 1 uM (10 mM stock), […] for 15 mM, 1.2 uM for 12 mM, 2 uM for 20 mM stock, average of 2 wells, 1536-well plate, repeat 1, read-out: Pb-Luc signal, 1 uM, repeat 1
[16] = Plasmodium berghei, nominal 1 uM (10 mM stock), […] for 15 mM, 1.2 uM for 12 mM, 2 uM for 20 mM stock, average of 2 wells, 1536-well plate, repeat 2, read-out: Pb-Luc signal, 1 uM, repeat 2
[17] = Plasmodium berghei, nominal 1 uM (10 mM stock), […] for 15 mM, 1.2 uM for 12 mM, 2 uM for 20 mM stock, average of 2 wells, 1536-well plate, repeat 3, read-out: Pb-Luc signal, 1 uM, repeat 3
[18] = Plasmodium berghei, nominal 3 uM (10 mM stock), 4.5 uM for 15 mM, 3.6 uM for 12 mM, 6 uM for 20 mM stock, average of 2 wells, 1536-well plate, repeat 1, read-out: Pb-Luc signal, 3 uM, repeat 1
[19] = Plasmodium berghei, nominal 3 uM (10 mM stock), 4.5 uM for 15 mM, 3.6 uM for 12 mM, 6 uM for 20 mM stock, average of 2 wells, 1536-well plate, repeat 2, read-out: Pb-Luc signal, 3 uM, repeat 2
[20] = Plasmodium berghei, nominal 3 uM (10 mM stock), 4.5 uM for 15 mM, 3.6 uM for 12 mM, 6 uM for 20 mM stock, average of 2 wells, 1536-well plate, repeat 3, read-out: Pb-Luc signal, 3 uM, repeat 3
[21] = Plasmodium berghei, Method 1, Hill fit, 50% of maximum activity response, read-out: AC50
[22] = Plasmodium berghei, Method 1, log10 of molar AC50 from Hill fit, read-out: Log AC50 (converted)

| Compound | CC50 at 48 h (in vitro [1]; HepG2 cells) | AC50 [2] | Max Resp (signal direction of the dose response) [4] | AC50 [4, 8] | AC50 [4, 9] | viability at 48 h, 1 µM (in vitro [5]) | viability at 48 h, 3 µM (in vitro [5]) | Individual replicates / Log AC50 (M) [6] | AC50 [6] | Individual replicates / Log AC50 (M) [7] | other results |
| --- | --- | --- | --- | --- | --- | --- | --- | --- | --- | --- | --- |
| Cc1nc2ccc(NC(=O)c3cc(S(=O)(=O)N(C)c4ccccc4)ccc3Cl)cc2s1 [MLS000393823-01] | 9.68 µM | 0.841 µM | Decrease | 0.501 µM | 0.501 µM |  |  |  |  |  | HepG2 1uM growth rep1 (HepG2-A16-CD81EGFP cells; HepG2, 1 µM compound treatment (10 mM stocks), replicate 1, normalized): 61%; HepG2 1uM growth rep2 (HepG2-A16-CD81EGFP cells; HepG2, 1 µM compound treatment (10 mM stocks), replicate 2, normalized): 56%; HepG2 3uM growth rep1 (HepG2-A16-CD81EGFP cells; HepG2, 3 µM compound treatment (10 mM stocks), replicate 1, normalized): 59%; HepG2 3uM growth rep2 (HepG2-A16-CD81EGFP cells; HepG2, 3 µM compound treatment (10 mM stocks), replicate 2, normalized): 60%; activity at 1 µM ([3]; Plasmodium berghei, P. berghei liver stage, 1 µM compound treatment (10 mM stocks), replicate 1, normalized, average of 2 wells on a 1536 well plate, read-out: PbLuc 1uM growth rep1): 19%; activity at 1 µM ([3]; Plasmodium berghei, P. berghei liver stage, 1 µM compound treatment (10 mM stocks), replicate 2, normalized, average of 2 wells on a 1536 well plate, read-out: PbLuc 1uM growth rep2): 15%; activity at 3 µM ([3]; Plasmodium berghei, P. berghei liver stage, 3 µM compound treatment (10 mM stocks), replicate 1, normalized, average of 2 wells on a 1536 well plate, read-out: PbLuc 3uM growth rep1): 3.66%; activity at 3 µM ([3]; Plasmodium berghei, P. berghei liver stage, 3 µM compound treatment (10 mM stocks), replicate 2, normalized, average of 2 wells on a 1536 well plate, read-out: PbLuc 3uM growth rep2): 5.53% |
| O=C(NC(c1ccccc1)c1cc(Cl)c2cccnc2c1O)c1cccnc1 (stereo not drawn) [MLS000573359-01] | 13.7 µM | 7.5 µM | Decrease | 1.12 µM | 1.12 µM | 119% | 66% |  |  |  |  |
| Oc1c(C(Nc2nccs2)c2ccc(C(F)(F)F)cc2)ccc2cccnc12 (stereo not drawn) [MLS000774842-01] | 15.3 µM | 5.31 µM | Decrease | 0.282 µM | 0.282 µM |  |  |  |  |  |  |
| O=C(Nc1ccccc1O)c1ccc(NC(=O)C2CC2)cc1 [MLS001162082-01] | 10.9 µM | 4.73 µM | Decrease | 2.24 µM | 2.24 µM | 114% | 108% |  |  |  | activity at 1 µM [3, 10]: 40%; activity at 1 µM [3, 11]: 37%; activity at 3 µM [3, 12]: 10%; activity at 3 µM [3, 13]: 10% |
| O=c1cc(CSc2ccc(Cl)cc2)nc(-c2ccccn2)[nH]1 [MLS001166297-01] | 12.2 µM | 5.96 µM | Inactive |  |  | 92% | 73% |  |  |  | activity at 1 µM [3, 10]: 17%; activity at 1 µM [3, 11]: 15%; activity at 3 µM [3, 12]: 8%; activity at 3 µM [3, 13]: 5% |
| Oc1c(CN2CCCCC2)cc(COCc2ccccc2)c2cccnc12 [NCGC00052274-02] | 6.85 µM | 8.41 µM |  |  |  |  |  | -5.4486 Log AC50 (M) and -5.3486 Log AC50 (M) | 5.64 µM | -5.4986 Log AC50 (M) | AC50 [7]: 5.03 µM |
| COc1ccc(C2C=C(c3ccc(Cl)cc3)Nc3nc(-c4ccc(Cl)cc4)nn32)cc1 (stereo not drawn) [NCGC00100531-01] |  | 0.237 µM |  |  |  |  |  |  |  |  | CC50 at 48 h (in vitro [1]; hepg2): 15.3 µM; HepG2 viability signal, 1 uM, repeat 1 (HepG2-A16-CD81EGFP cells; nominal 1 uM (10 mM stock), […] for 15 mM, 1.2 uM for 12 mM, 2 uM for 20 mM stock, repeat 1): 97.18%; HepG2 viability signal, 1 uM, repeat 2 (HepG2-A16-CD81EGFP cells; [14]): 96.07%; HepG2 viability signal, 3 uM, repeat 2 (HepG2-A16-CD81EGFP cells): 80.71%; Max Resp (signal direction of the dose response) ([3]; Method 1): Inactive; activity at 1 µM [3, 15]: 88.1%; activity at 1 µM [3, 16]: 81%; activity at 1 µM [3, 17]: 70.8%; activity at 3 µM [3, 18]: 5.3%; activity at 3 µM [3, 19]: 3.16%; activity at 3 µM [3, 20]: 51.4% |
| O=C(Nc1ccc(Br)cc1)c1ccc(F)c([S+](=O)([O-])NC2CCCCCC2)c1 [NCGC00139407-01] | 13.7 µM | 9.44 µM | Decrease | 0.631 µM | 0.631 µM |  |  |  |  |  | Max Resp (signal direction of the dose response) ([3]; Method 1): Decrease; AC50 ([3]; Method 1, Hill fit, 50% of maximum activity response, read-out: AC50): 1.12 µM; Log AC50 (M) ([3]; Method 1, log10 of molar AC50 from Hill fit): -5.950 M; AC50 [3, 21]: 0.562 µM; AC50 [3, 22]: 0.562 µM |
| Oc1c(CNc2ccccc2)cc(COCc2ccccc2)c2cccnc12 [NCGC00183370-01] | 21.7 µM |  |  |  |  |  |  | -5.0486 Log AC50 (M) | 11.3 µM | -4.7986 Log AC50 (M) | AC50 [7]: 14.2 µM |
| Oc1c(CN2CCCC2)cc(COCc2ccccc2)c2cccnc12 [NCGC00183371-01] | 8.62 µM | 6.68 µM |  |  |  |  |  | -5.2986 Log AC50 (M) and -5.1986 Log AC50 (M) | 3.99 µM | -4.7986 Log AC50 (M) and -5.1486 Log AC50 (M) |  |
| CN(C)C1CCN(Cc2cc(COCc3ccccc3)c3cccnc3c2O)C1 (stereo not drawn) [NCGC00183372-01] | 21.7 µM |  |  |  |  |  |  | -5.2486 Log AC50 (M) and -5.1486 Log AC50 (M) | 5.03 µM | -5.2986 Log AC50 (M) and -5.1986 Log AC50 (M) and -4.7986 Log AC50 (M) |  |
| COc1ccc(CN[C@@H]2C=C[C@@H](c3c(C)nn(-c4ccc(OC)cc4)c3C)C2)cc1 [NCGC00401425-01] | 39.6 µM | 4.85 µM |  |  |  | 100% | 99.3% |  |  |  | HepG2 viability signal, 1 uM, repeat 2 (HepG2-A16-CD81EGFP cells; [14]): 96.20%; HepG2 viability signal, 3 uM, repeat 2 (HepG2-A16-CD81EGFP cells): 99.98%; activity at 1 µM [3, 15]: 79.1%; activity at 1 µM [3, 16]: 135%; activity at 1 µM [3, 17]: 59%; activity at 3 µM [3, 18]: 56.4%; activity at 3 µM [3, 19]: 76.7%; activity at 3 µM [3, 20]: 51.8% |
| Cc1nn2c(c1-c1ccccc1-c1ccccc1)N(Cc1ccc(O)cc1)CCC2 [NCGC00420512-01] | 28 µM | 0.485 µM |  |  |  | 96.5% | 112% |  |  |  | HepG2 viability signal, 1 uM, repeat 2 (HepG2-A16-CD81EGFP cells; [14]): 99.38%; HepG2 viability signal, 3 uM, repeat 2 (HepG2-A16-CD81EGFP cells): 110.31%; Max Resp (signal direction of the dose response) ([3]; Method 1): Decrease; activity at 1 µM [3, 15]: 76.6%; activity at 1 µM [3, 16]: 69.5%; activity at 1 µM [3, 17]: 95.1%; activity at 3 µM [3, 18]: 15.6%; activity at 3 µM [3, 19]: 15.8%; activity at 3 µM [3, 20]: 40.5%; AC50 [3, 21]: 1.58 µM; AC50 [3, 22]: 1.58 µM |
